Assay results published in patent publication US20230287003A1, “BCL6 INHIBITORS” (Cancer Research Technology Limited, priority 2018, published 2023).

biological target: human BCL6 BTB domain (Trx-6×His-BCL6) / BCOR-AF633 peptide (Homo sapiens (Human), UniProt P41182); experiment: HTRF assay; assay type: binding; conditions: 1 nM Trx-6×His-BCL6, 300 nM BCOR-AF633 peptide, 2 hours incubation
Protocol: The % inhibition at each concentration was calculated by normalising FRET ratio to the appropriate high (DMSO with all reagents) and low (DMSO without BCL6) controls.

First: C[C@@H]1CN(c2ncc(Cl)c(Nc3ccc4c(c3)c3c(c(=O)n4CCO)OCC[C@H](C4CC4)N3)n2)C[C@H](C)C1(F)F [Example 16a, (R)-10-((5-chloro-2-((3S,5R)-4,4-difluoro-3,5-dimethylpiperidin-1-yl)pyrimidin-4-yl)amino)-2-cyclopropyl-7-(2-hydroxyethyl)-1,2,3,4-tetrahydro-[1,4]oxazepino[2,3-c]quinolin-6(7H)-one]
Second: C[C@@H]1CN(c2ncc(Cl)c(Nc3ccc4c(c3)c3c(c(=O)n4C)OCC(F)(F)[C@H](C4CC4)N3)n2)CCO1 [Example 12s, (S)-10-((5-chloro-2-((R)-2-methylmorpholino)pyrimidin-4-yl)amino)-2-cyclopropyl-3,3-difluoro-7-methyl-1,2,3,4-tetrahydro-[1,4]oxazepino[2,3-c]quinolin-6(7H)-one]
The “HTRF avg pIC50 (1 nM)” value of the first is lower: 7.17 for the first, 8.47 for the second.

Going from `CC1COc2c(c3cc(Nc4ccnc(Cl)c4C#N)ccc3n(C)c2=O)N1` (stereo not shown) [Example 1k, 2-chloro-4-((2,6-dimethyl-5-oxo-2,3,5,6-tetrahydro-1H-[1,4]oxazino[2,3-c]quinolin-9-yl)amino)nicotinonitrile] to `C[C@H]1COC(=O)c2c(c3cc(Nc4ccnc(Cl)c4C#N)ccc3n(C)c2=O)N1` [Example 6a, (S)-2-chloro-4-((2,7-dimethyl-5,6-dioxo-1,2,3,5,6,7-hexahydro-[1,4]oxazepino[6,5-c]quinolin-10-yl)amino)nicotinonitrile], the “HTRF avg pIC50 (1 nM)” value rises from 5.91 to 7.01.

Going from `C[C@@H]1CN(c2ncc(Cl)c(Nc3ccc4c(c3)c3c(c(=O)n4C)SCC[C@H](C4CC4)N3)n2)C[C@H](C)C1(F)F` [Example 12m, (R)-10-((5-chloro-2-((3S,5R)-4,4-difluoro-3,5-dimethylpiperidin-1-yl)pyrimidin-4-yl)amino)-2-cyclopropyl-7-methyl-1,2,3,4-tetrahydro-[1,4]thiazepino[2,3-c]quinolin-6(7H)-one] to `Cn1c(=O)c2c(c3cc(Nc4nc(N5CCc6ncnc(O)c6C5)ncc4Cl)ccc31)N[C@@H](C1CC1)C(F)(F)CO2` [Example 13a, (S)-10-((5-chloro-2-(4-hydroxy-7,8-dihydropyrido[4,3-d]pyrimidin-6(5H)-yl)pyrimidin-4-yl)amino)-2-cyclopropyl-3,3-difluoro-7-methyl-1,2,3,4-tetrahydro-[1,4]oxazepino[2,3-c]quinolin-6(7H)-one], the “HTRF avg pIC50 (1 nM)” value rises from 6.84 to 8.68.

`C[C@@H]1CN(c2ncc(Cl)c(Nc3ccc4c(c3)c3c(c(=O)n4C)C(=O)OC[C@H](C4CC4)N3)n2)C[C@H](C)C1(F)F` [Example 8k, (S)-10-((5-chloro-2-((3S,5R)-4,4-difluoro-3,5-dimethylpiperidin-1-yl)pyrimidin-4-yl)amino)-2-cyclopropyl-7-methyl-2,3-dihydro-[1,4]oxazepino[6,5-c]quinoline-5,6(1H,7H)-dione] and `CCC1COc2c(c3cc(Nc4ccnc(Cl)c4C#N)ccc3n(C)c2=O)N1` (stereo not shown) [Example 1l, 2-chloro-4-((2-ethyl-6-methyl-5-oxo-2,3,5,6-tetrahydro-1H-[1,4]oxazino[2,3-c]quinolin-9-yl)amino)nicotinonitrile] are within 0.2 log units of each other in “HTRF avg pIC50 (1 nM)” value: 6.38 for the first, 6.22 for the second.

`Cn1c(=O)c2c(c3cc(Nc4nc(N5C6CCC5COC6)ncc4F)ccc31)N[C@@H](C1CC1)C(F)(F)CO2` [Example 13j, (S)-10-((2-(3-oxa-8-azabicyclo[3.2.1]octan-8-yl)-5-fluoropyrimidin-4-yl)amino)-2-cyclopropyl-3,3-difluoro-7-methyl-1,2,3,4-tetrahydro-[1,4]oxazepino[2,3-c]quinolin-6(7H)-one] and “(S)-10-((5-chloro-2-((1S,5R)-3-methyl-2-oxo-3,8- diazabicyclo[3.2.1]octan-8-yl)pyrimidin-4-yl)amino)-2-cyclopropyl- 3,3-difluoro-7-methyl-1,2,3,4-tetrahydro-[1,4]oxazepino[2,3-c]quinolin- 6(7H)-one and (S)-10-((5-chloro-2-((1R,5S)-3-methyl-2-oxo-3,8- diazabicyclo[3.2.1]octan-8-yl)pyrimidin-4-yl)amino)-2-cyclopropyl- 3,3-difluoro-7-methyl-1,2,3,4-tetrahydro- [1,4]oxazepino[2,3-c]quinolin-6(7H)-one [Example 13b]” are within 0.2 log units of each other in “HTRF avg pIC50 (1 nM)” value: 8.60 for the first, 8.59 for the second.

Compared with `Cn1c(=O)c2c(c3cc(Nc4ccnc(Cl)c4C#N)ccc31)NC1(CCOC1)CCO2` (stereo not shown) [Example 1o, 2-chloro-4-((7′-methyl-6′-oxo-3′,4,4′,5,6′,7′-hexahydro-1′H,2H-spiro[furan-3,2′-[1,4]oxazepino[2,3-c]quinolin]-10′-yl)amino)nicotinonitrile], `Cn1c(=O)c2c(c3cc(Nc4nc(-n5ccc(C(F)(F)F)n5)ncc4Cl)ccc31)NC1(CCOC1)CCO2` (stereo not shown) [Example 5j, 10′-((5-chloro-2-(3-(trifluoromethyl)-1H-pyrazol-1-yl)pyrimidin-4-yl)amino)-7′-methyl-3′,4,4′,5-tetrahydro-1′H,2H-spiro[furan-3,2′-[1,4]oxazepino[2,3-c]quinolin]-6′(7′H)-one] is lower in “HTRF avg pIC50 (1 nM)” value: 6.14 for the first, 5.79 for the second.

`Cn1c(=O)c2c(c3cc(Nc4ccnc(Cl)c4C#N)ccc31)NC(C(F)F)CCO2` (stereo not shown) [Example 1p, 2-chloro-4-((2-(difluoromethyl)-7-methyl-6-oxo-1,2,3,4,6,7-hexahydro-[1,4]oxazepino[2,3-c]quinolin-10-yl)amino)nicotinonitrile] and `Cn1c(=O)c2c(c3cc(Nc4ccnc(Cl)c4C#N)ccc31)NC(C1CCC1)CO2` (stereo not shown) [Example 1n, 2-chloro-4-((2-cyclobutyl-6-methyl-5-oxo-2,3,5,6-tetrahydro-1H-[1,4]oxazino[2,3-c]quinolin-9-yl)amino)nicotinonitrile] are within 0.2 log units of each other in “HTRF avg pIC50 (1 nM)” value: 5.67 for the first, 5.70 for the second.

Going from `CN1CCN(c2ncc(F)c(Nc3ccc4c(c3)c3c(c(=O)n4C)OCC(F)(F)[C@H](C4CC4)N3)n2)CC1=O` [Example 13i, (S)-2-cyclopropyl-3,3-difluoro-10-((5-fluoro-2-(4-methyl-3-oxopiperazin-1-yl)pyrimidin-4-yl)amino)-7-methyl-1,2,3,4-tetrahydro-[1,4]oxazepino[2,3-c]quinolin-6(7H)-one] to `COCC1(C)CCOc2c(c3cc(Nc4nc(-n5ccc(C(F)(F)F)n5)ncc4Cl)ccc3n(C)c2=O)N1` (stereo not shown) [Example 5b, 10-((5-chloro-2-(3-(trifluoromethyl)-1H-pyrazol-1-yl)pyrimidin-4-yl)amino)-2-(methoxymethyl)-2,7-dimethyl-1,2,3,4-tetrahydro-[1,4]oxazepino[2,3-c]quinolin-6(7H)-one], the “HTRF avg pIC50 (1 nM)” value falls from 8.45 to 6.09.

Compared with “(S)-10-((5-chloro-2-((3S,5R)-3-hydroxy-5- methylpiperidin-1-yl)pyrimidin-4-yl)amino)-2,7-dimethyl-1,2,3,4- tetrahydro-[1,4]oxazepino[2,3-c]quinolin-6(7H)-one or (S)-10-((5- chloro-2-((3R,5S)-3-hydroxy-5-methylpiperidin-1-yl)pyrimidin-4- yl)amino)-2,7-dimethyl-1,2,3,4-tetrahydro- [1,4]oxazepino[2,3-c]quinolin-6(7H)-one [Example 12l]”, `C[C@H]1COCc2c(c3cc(Nc4ccnc(Cl)c4C#N)ccc3n(C)c2=O)N1` [Example 9a, (S)-2-chloro-4-((2,7-dimethyl-6-oxo-1,2,3,5,6,7-hexahydro-[1,4]oxazepino[6,5-c]quinolin-10-yl)amino)nicotinonitrile] is lower in “HTRF avg pIC50 (1 nM)” value: 6.99 for the first, 5.66 for the second.

For `Cn1c(=O)c2c(c3cc(Nc4ccncc4Cl)ccc31)N[C@@H](C1CC1)C(F)(F)CO2` [Example 4d, (S)-10-((3-chloropyridin-4-yl)amino)-2-cyclopropyl-3,3-difluoro-7-methyl-1,2,3,4-tetrahydro-[1,4]oxazepino[2,3-c] quinolin-6(7H)-one], the “HTRF avg pIC50 (1 nM)” value was 7.99.

same assay, conditions: HTRF avg pIC50 (1 nM), 1 nM Trx-6×His-BCL6, 300 nM BCOR-AF633 peptide, 2 hours incubation

With `Cn1c(=O)c2c(c3cc(Nc4ccnc(Cl)c4C#N)ccc31)N[C@@H](C1CC1)COC2=O` [Example 6b, (S)-2-chloro-4-((2-cyclopropyl-7-methyl-5,6-dioxo-1,2,3,5,6,7-hexahydro-[1,4]oxazepino[6,5-c]quinolin-10-yl)amino)nicotinonitrile] the IC50 was 166 nM.

same assay, conditions: read-out: IC50 in the HTRF assay

`Cn1c(=O)c2c(c3cc(Nc4ccnc(Cl)c4C#N)ccc31)NC(CC1CC1)CO2` (stereo not shown) [2-chloro-4-((2-(cyclopropylmethyl)-6-methyl-5-oxo-2,3,5,6-tetrahydro-1H-[1,4]oxazino[2,3-c]quinolin-9-yl)amino)nicotinonitrile] and `Cn1c(=O)c2c(c3cc(Nc4ccnc(Cl)c4C#N)ccc31)NC(C1CCC1)CCO2` (stereo not shown) [2-chloro-4-((2-cyclobutyl-7-methyl-6-oxo-1,2,3,4,6,7-hexahydro-[1,4]oxazepino[2,3-c]quinolin-10-yl)amino)nicotinonitrile] cannot be ordered by IC50: over 2500 nM for the first, over 2500 nM for the second.

`COc1cnc(N2C[C@@H](C)C(F)(F)[C@@H](C)C2)nc1Nc1ccc2c(c1)c1c(c(=O)n2C)OCC[C@H](C2CC2)N1` [(R)-2-cyclopropyl-10-((2-((3S,5R)-4,4-difluoro-3,5-dimethylpiperidin-1-yl)-5-methoxypyrimidin-4-yl)amino)-7-methyl-1,2,3,4-tetrahydro-[1,4]oxazepino[2,3-c]quinolin-6(7H)-one] and `CC(=O)N1CC2CC(C1)CN(c1ncc(Cl)c(Nc3ccc4c(c3)c3c(c(=O)n4C)C(=O)OC[C@H](C)N3)n1)C2` [(2S)-10-((2-(7-acetyl-3,7-diazabicyclo[3.3.1]nonan-3-yl)-5-chloropyrimidin-4-yl)amino)-2,7-dimethyl-2,3-dihydro-[1,4]oxazepino[6,5-c]quinoline-5,6(1H,7H)-dione] cannot be ordered by IC50: over 2500 nM for the first, over 2500 nM for the second.

Compound `CC1CC(C)(C)Oc2c(c3cc(Nc4ccnc(Cl)c4C#N)ccc3n(C)c2=O)N1` (stereo not shown) [2-chloro-4-((2,4,4,7-tetramethyl-6-oxo-1,2,3,4,6,7-hexahydro-[1,4]oxazepino[2,3-c]quinolin-10-yl)amino)nicotinonitrile] has an IC50 of over 2500 nM.
